Source: ChEMBL document CHEMBL6087385, “Synthesis and biological evaluation of Ribo 7-N/O/S pyrimidine 9-deaza C-nucleoside analogs as new antiviral agents for inhibiting HCV RNA-dependent RNA polymerases” (Eur J Med Chem, 2024)

Legend:
[1] = Toxicity in Sprague-Dawley rat assessed as eyes and nares staining at 90 mg/kg, po administered as single dose and measured after 14 days; format: organism-based; conditions: in vivo, 336 h, time 14 day
[2] = Cmax in Cynomolgus monkey at 1 mg/kg, iv by reverse phase chromatography; format: ADME, organism-based, Macaca fascicularis; conditions: in vivo, time 7 day
[3] = Drug metabolism in human Hepatocyte cells assessed as triphosphate metabolite formation at 10 uM measured upto 24 hrs by HPLC-MS analysis; format: ADME, cell-based; conditions: hepatocytes
[4] = Metabolic stability in cryopreserved rat hepatocyte assessed as half life in presence of NADPH; format: ADME, cell-based; conditions: cryopreserved hepatocytes
[5] = Toxicity in Sprague-Dawley rat assessed as lethargy at 90 mg/kg, po administered as single dose and measured after 14 days; format: organism-based; conditions: in vivo, 336 h, time 14 day
[6] = Metabolic stability in cryopreserved Non human primate hepatocyte assessed as half life in presence of NADPH; format: ADME, cell-based; conditions: cryopreserved hepatocytes
[7] = Genotoxicity in human Lymphocyte assessed as induction of chromosomal aberration upto 3000 ug/ml; format: toxicity, cell-based; conditions: dose < 3000 µg/ml
Hepatitis C virus [8] = assay: Anti-viral activity against HCV genotype 2a infected in Lunet-CD81 cells; format: functional, organism-based, Hepacivirus hominis
[9] = Toxicity in Cynomolgus monkey assessed as emesis at 100 mg/kg, po administered twice a day; format: organism-based, Macaca fascicularis; conditions: in vivo
[10] = AUC (0 to infinity) in Sprague-Dawley rat at 5 mg/kg, po by reverse phase chromatography; format: ADME, organism-based; conditions: in vivo
[11] = Genotoxicity in CD-1(ICR)BR mouse assessed as increase in polychromatic erythrocytes at 500 to 2000 mg/kg, po measured after 48 hrs by micronucleus assay; format: toxicity, organism-based; conditions: in vivo, dose 500-2000 mg/kg
[12] = AUC in Cynomolgus monkey at 10 mg/kg, po administered for 7 days by reverse phase chromatography; format: ADME, organism-based, Macaca fascicularis; conditions: in vivo, time 7 day
[13] = Toxicity in dog assessed as effect on […] function at 1 to 5 mg/kg, po administered for 3 hr post dose by electrocardiogram analysis; format: organism-based, Canis lupus familiaris; conditions: in vivo, dose 1-5 mg/kg
[14] = Clearance in female mouse at 1 mg/kg, iv by reverse phase chromatography; format: ADME, organism-based; conditions: in vivo
[15] = Half life in female mouse at 1 mg/kg, iv by reverse phase chromatography; format: ADME, organism-based; conditions: in vivo
[16] = AUC (0 to infinity) in female mouse at 1 mg/kg, iv by reverse phase chromatography; format: ADME, organism-based; conditions: in vivo
[17] = Genotoxicity in mouse L5178Y cells assessed as increase in forward mutation at thymidine kinase locus; format: toxicity, cell-based
[18] = Toxicity in Sprague-Dawley rat assessed as piloerection at 150 mg/kg, po administered as single dose and measured after 14 days; format: organism-based; conditions: in vivo, 336 h, time 14 day
[19] = Metabolic stability in dog liver microsome assessed as half life in presence of NADPH; format: ADME, Canis lupus familiaris; conditions: liver microsomes
[20] = Cmax in Sprague-Dawley rat at 10 mg/kg, po by reverse phase chromatography; format: ADME, organism-based; conditions: in vivo
[21] = Toxicity in Sprague-Dawley rat assessed as weight loss at 250 mg/kg, po administered as single dose and measured after 14 days; format: organism-based; conditions: in vivo, 336 h, time 14 day
[22] = Cmax in female mouse at 1 mg/kg, iv by reverse phase chromatography; format: ADME, organism-based; conditions: in vivo
[23] = Tmax in Cynomolgus monkey at 1 mg/kg, iv by reverse phase chromatography; format: ADME, organism-based, Macaca fascicularis; conditions: in vivo
[24] = Metabolic stability in cryopreserved human hepatocyte assessed as half life in presence of NADPH; format: ADME, cell-based; conditions: cryopreserved hepatocytes
[25] = target: hERG potassium channel (KCNH2) (Homo sapiens, UniProt Q12809); assay: Inhibition of hERG potassium channel expressed in HEK cells at 100 uM relative to control; format: toxicity, cell-based; conditions: HEK cells expressing hERG
[26] = Toxicity in Cynomolgus monkey assessed as emesis at 250 to 500 mg/kg, po administered as single dose; format: organism-based, Macaca fascicularis; conditions: in vivo, dose 250-500 mg/kg
[27] = Toxicity in Sprague-Dawley rat assessed as animal death at 90 to 250 mg/kg, po administered as single dose and measured after 14 days; format: organism-based; conditions: in vivo, 336 h, dose 90-250 mg/kg, time 14 day
[28] = Half life in Cynomolgus monkey at 1 mg/kg, iv by reverse phase chromatography; format: ADME, organism-based, Macaca fascicularis; conditions: in vivo
[29] = Toxicity in cynomolgus monkey assessed as weight loss at 100 to 500 mg/kg, po administered as single dose; format: organism-based, Macaca fascicularis; conditions: in vivo, dose 100-500 mg/kg
[30] = Toxicity in Cynomolgus monkey assessed as change in ECG at 100 mg/kg, po administered twice a day; format: organism-based, Macaca fascicularis; conditions: in vivo
[31] = Toxicity in Sprague-Dawley rat assessed as eyes and nares staining at 250 mg/kg, po administered as single dose and measured after 14 days; format: organism-based; conditions: in vivo, 336 h, time 14 day
Hepatitis C virus [32] = assay: Anti-viral activity against HCV genotype 1b infected in human Huh-luc cells; format: functional, organism-based, Hepacivirus hominis
[33] = Toxicity in Cynomolgus monkey assessed as animal death at 100 mg/kg, po administered twice a day; format: organism-based, Macaca fascicularis; conditions: in vivo
[34] = Toxicity in rat assessed as mortality at 1 to 9 mg/kg, po; format: organism-based; conditions: in vivo, dose 1-9 mg/kg
[35] = Oral bioavailability in Sprague-Dawley rat at 10 mg/kg by reverse phase chromatography; format: ADME, organism-based; conditions: in vivo
[36] = AUC in Sprague-Dawley rat at 10 mg/kg, po by reverse phase chromatography; format: ADME, organism-based; conditions: in vivo
Hepatitis C virus [37] = assay: Antiviral activity against HCV genotype 1a infected in GLuc-1 cells; format: functional, organism-based, Hepacivirus hominis
[38] = Tmax in female mouse at 5 mg/kg, po by reverse phase chromatography; format: ADME, organism-based; conditions: in vivo
[39] = Toxicity in Sprague-Dawley rat assessed as weight loss at 150 mg/kg, po administered as single dose and measured after 14 days; format: organism-based; conditions: in vivo, 336 h, time 14 day
[40] = Toxicity in Sprague-Dawley rat assessed as eyes and nares staining at 100 mg/kg, po administered as single dose and measured after 14 days; format: organism-based; conditions: in vivo, 336 h, time 14 day
[41] = Toxicity in Sprague-Dawley rat assessed as lethargy at 250 mg/kg, po administered as single dose and measured after 14 days; format: organism-based; conditions: in vivo, 336 h, time 14 day
[42] = AUC in female mouse at 1 mg/kg, iv by reverse phase chromatography; format: ADME, organism-based; conditions: in vivo
[43] = AUC in Sprague-Dawley rat at 1 mg/kg, iv by reverse phase chromatography; format: ADME, organism-based; conditions: in vivo
[44] = Cmax in Sprague-Dawley rat at 1 mg/kg, iv by reverse phase chromatography; format: ADME, organism-based; conditions: in vivo
[45] = Toxicity in Sprague-Dawley rat assessed as weight loss at 100 mg/kg, po administered as single dose and measured after 14 days; format: organism-based; conditions: in vivo, 336 h, time 14 day
[46] = Toxicity in rat assessed as effect on respiratory endpoint at 1 to 9 mg/kg, po; format: organism-based; conditions: in vivo, dose 1-9 mg/kg
[47] = Tmax in Sprague-Dawley rat at 10 mg/kg, po by reverse phase chromatography; format: ADME, organism-based; conditions: in vivo
[48] = Toxicity in Sprague-Dawley rat assessed as macroscopic examination at necroscopy at 100 mg/kg, po administered as single dose and measured after 14 days; format: organism-based; conditions: in vivo, 336 h, time 14 day
[49] = Half life in Sprague-Dawley rat at 10 mg/kg, po by reverse phase chromatography; format: ADME, organism-based; conditions: in vivo
[50] = Tmax in Sprague-Dawley rat at 1 mg/kg, iv by reverse phase chromatography; format: ADME, organism-based; conditions: in vivo

Sequence of hERG potassium channel (KCNH2) (Q12809 whole entry): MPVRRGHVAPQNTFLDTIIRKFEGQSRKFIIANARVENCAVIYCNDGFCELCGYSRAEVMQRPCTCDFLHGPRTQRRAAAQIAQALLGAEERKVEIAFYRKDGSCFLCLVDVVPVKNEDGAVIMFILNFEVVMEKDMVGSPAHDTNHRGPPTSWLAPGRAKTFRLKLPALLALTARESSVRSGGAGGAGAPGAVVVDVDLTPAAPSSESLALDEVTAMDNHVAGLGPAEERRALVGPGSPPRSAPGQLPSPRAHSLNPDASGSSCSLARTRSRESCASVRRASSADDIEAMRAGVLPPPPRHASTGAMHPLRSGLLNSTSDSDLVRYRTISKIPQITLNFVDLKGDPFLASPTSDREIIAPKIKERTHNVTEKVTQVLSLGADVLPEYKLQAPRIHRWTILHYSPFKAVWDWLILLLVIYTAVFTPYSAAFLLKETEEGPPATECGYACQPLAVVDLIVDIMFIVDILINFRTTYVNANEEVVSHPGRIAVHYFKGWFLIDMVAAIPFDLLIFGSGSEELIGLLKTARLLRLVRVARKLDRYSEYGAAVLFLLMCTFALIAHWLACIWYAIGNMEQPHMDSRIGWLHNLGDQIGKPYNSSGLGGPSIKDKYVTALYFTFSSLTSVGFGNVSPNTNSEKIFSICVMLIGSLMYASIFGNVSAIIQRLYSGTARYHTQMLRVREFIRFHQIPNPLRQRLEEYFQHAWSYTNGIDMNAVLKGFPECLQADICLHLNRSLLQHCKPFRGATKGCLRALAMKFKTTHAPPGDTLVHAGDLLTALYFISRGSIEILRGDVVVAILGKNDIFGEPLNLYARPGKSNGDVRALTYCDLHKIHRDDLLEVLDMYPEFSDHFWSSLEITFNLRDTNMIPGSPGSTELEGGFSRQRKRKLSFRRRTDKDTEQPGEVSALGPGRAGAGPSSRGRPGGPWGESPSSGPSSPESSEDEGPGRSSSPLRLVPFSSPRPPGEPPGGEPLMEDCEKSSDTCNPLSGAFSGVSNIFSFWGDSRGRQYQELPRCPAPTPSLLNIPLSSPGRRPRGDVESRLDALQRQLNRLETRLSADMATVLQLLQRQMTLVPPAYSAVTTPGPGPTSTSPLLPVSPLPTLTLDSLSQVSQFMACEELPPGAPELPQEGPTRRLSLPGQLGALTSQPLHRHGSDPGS

C[C@@]1(O)[C@H](O)[C@@H](CO)O[C@H]1c1coc2c(N)ncnc12
Activity [1]: Non-toxic
Cmax [2]: 3200 ng/mL
Drug metabolism [3]: metabolite_detected
half-life [4]: > 1 h
Activity [5]: Non-toxic
half-life [6]: > 1 h
Activity [7]: Non-toxic
EC50 (Hepatitis C virus [8]): > 50 µM
Activity [9]: Non-toxic
AUC(0-inf) [10]: 2150 ng·h/mL
Activity [11]: Toxic
AUC at 168 h [12]: 7260 ng·h/mL
Activity [13]: Non-toxic
clearance [14]: 11.6 mL/min/kg
half-life [15]: 22.3 h
AUC(0-inf) [16]: 1440 ng·h/mL
Activity [17]: Non-toxic
Activity [18]: Toxic
half-life [19]: > 1.67 h
Cmax [20]: 1180 ng/mL
Activity [21]: Non-toxic
Cmax [22]: 1130 ng/mL
Tmax [23]: 1.8 min
half-life [24]: > 1 h
inhibition at 100 µM [25]: 1.3%
Activity [26]: Toxic
Activity [27]: Non-toxic
half-life [28]: 24 h
Activity [29]: Non-toxic
Activity [30]: Non-toxic
Activity [31]: Non-toxic
EC50 (Hepatitis C virus [32]): 4.7 µM
Activity [33]: Non-toxic
Activity [34]: Non-toxic
bioavailability [35]: 71.2%
AUC [36]: 4980 ng·h/mL
EC50 (Hepatitis C virus [37]): 5.4 µM
Tmax [38]: 0.5 h
Activity [39]: Toxic
Activity [40]: Non-toxic
Activity [41]: Non-toxic
AUC [42]: 866 ng·h/mL
AUC [43]: 699 ng·h/mL
Cmax [44]: 1150 ng/mL
Activity [45]: Non-toxic
Activity [46]: Non-toxic
Tmax [47]: 0.5 h
Activity [48]: Non-toxic
half-life [49]: 8.86 h
Tmax [50]: 4.8 min
